Test results published in patent publication US9540323B2 (BRISTOL-MYERS SQUIBB COMPANY, priority 2012, dated 2017).

Tests used:
[1] = molecular target: cloned human P2Y1 receptors (Homo sapiens (Human), UniProt P47900); test: Binding Assay B - Scintillation Proximity Assay (SPA) for P2Y1 binding, [33P] 2MeS-ADP; conditions: SPA, 0.3 nM [33P] 2MeS-ADP, Cheng-Prusoff; read-out: P2Y1 Ki (nM) using binding assay B
Experimental: Binding Assay B—Scintillation Proximity Assay (SPA) for P2Y1 Binding
A SPA membrane binding assay was used to identify inhibitors of [^33P] […] Reactions were allowed to proceed to completion at room temperature for 1 hour followed by centrifugation of the plate for 5 min. About 40 μL of the aqueous solution was aspirated. Plates were sealed and the [^33P]

[2] = test system: human platelet rich plasma (PRP); test: ADP induced platelet aggregation assay; conditions: Homo sapiens, Platelet, 5 min, read-out: PA IC50 (μM) @ 10 μM ADP, human PRP, 10 μM ADP, AUC at 5 minute

Chain of cloned human P2Y1 receptors (P47900 whole entry): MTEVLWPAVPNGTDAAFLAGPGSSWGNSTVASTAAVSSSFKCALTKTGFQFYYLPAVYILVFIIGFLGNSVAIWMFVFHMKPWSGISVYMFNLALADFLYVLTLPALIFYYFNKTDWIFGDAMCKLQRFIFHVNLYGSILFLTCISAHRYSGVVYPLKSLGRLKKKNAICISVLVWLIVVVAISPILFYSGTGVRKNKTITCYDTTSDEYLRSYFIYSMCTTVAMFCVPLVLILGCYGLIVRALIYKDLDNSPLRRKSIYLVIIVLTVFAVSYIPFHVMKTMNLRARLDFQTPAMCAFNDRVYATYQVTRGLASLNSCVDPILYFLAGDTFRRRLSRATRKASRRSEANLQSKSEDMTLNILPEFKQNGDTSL

SMILES | Ki [1] | IC50 [2]
CC(C)(C)CN1CCC(c2ccc(NC(=O)Nc3ccccc3N3CC(C)(C)c4c(C(F)(F)F)ccc(O)c43)cc2)CC1 [Example 2, 1-(2-(7-Hydroxy-3,3-dimethyl-4-(trifluoromethyl)indolin-1-yl)phenyl)-3-(4-(1-neopentylpiperidin-4-yl)phenyl)urea] | 3.4 nM | 0.13 µM
CC1(C)CN(c2ccccc2NC(=O)NC2CCN(CC(F)(F)F)CC2)c2c(O)ccc(C(F)(F)F)c21 [Example 3, 1-(2-(7-Hydroxy-3,3-dimethyl-4-(trifluoromethyl)indolin-1-yl)phenyl)-3-(1-(2,2,2-trifluoroethyl)piperidin-4-yl)urea] | 4.9 nM | 3.1 µM
CCC1(CC)CN(c2ccccc2NC(=O)Nc2ccc(C3CCN(CC(C)(C)C)CC3)cc2)c2c(O)ccc(F)c21 [Example 4, 1-(2-(3,3-Diethyl-4-fluoro-7-hydroxyindolin-1-yl)phenyl)-3-(4-(1-neopentylpiperidin-4-yl)phenyl)urea] | 5.6 nM | 0.36 µM
CCC1(CC)CN(c2ccccc2NC(=O)Nc2ccc(OC(F)(F)F)cc2)c2c(O)cc(F)cc21 [Example 5, 1-(2-(3,3-Diethyl-5-fluoro-7-hydroxyindolin-1-yl)phenyl)-3-(4-(trifluoromethoxy)phenyl)urea] | 16 nM | 1.05 µM
CC1(C)CN(c2ccccc2NC(=O)Nc2csc(Cl)n2)c2c(O)ccc(Br)c21 [Example 6, 1-(2-(4-Bromo-7-hydroxy-3,3-dimethylindolin-1-yl)phenyl)-3-(2-chlorothiazol-4-yl)urea] | 24.4 nM | 0.31 µM
CCC1(CC)CN(c2ccccc2NC(=O)Nc2ccc(C3CCCN3CC(C)(C)C)cc2)c2c(O)cccc21 (centres unmarked) [Example 7, 1-(2-(3,3-Diethyl-7-hydroxyindolin-1-yl)phenyl)-3-(4-(1-neopentylpyrrolidin-2-yl)phenyl)urea] | 8.6 nM | 0.55 µM
CCC1(CC)CN(c2ccccc2NC(=O)Nc2ccc(C3CCCN3CC(C)C)cc2)c2c(O)cccc21 (centres unmarked) [Example 8] | 18.6 nM | 0.31 µM
CCC1(CC)CN(c2ccccc2NC(=O)Nc2nc3ccc(Cl)cc3s2)c2c(O)cccc21 [Example 9, 1-(6-Chlorobenzo[d]thiazol-2-yl)-3-(2-(3,3-diethyl-7-hydroxyindolin-1-yl)phenyl)urea] | 14.2 nM | 0.39 µM
CCC1(CC)CN(c2ccccc2NC(=O)Nc2nc3ccc(C)cc3s2)c2c(O)cccc21 [Example 10, 1-(2-(3,3-Diethyl-7-hydroxyindolin-1-yl)phenyl)-3-(6-methylbenzo[d]thiazol-2-yl)urea] | 7.6 nM | 0.54 µM
CC(C)CN1CCCC1c1ccc(NC(=O)Nc2ccccc2N2CC(C)(C)c3cccc(O)c32)cc1 (centres unmarked) [Example 11, 1-(2-(7-Hydroxy-3,3-dimethylindolin-1-yl)phenyl)-3-(4-(1-isobutylpyrrolidin-2-yl)phenyl)urea] | 36.8 nM | 1.08 µM
CC1(C)CN(c2ccccc2NC(=O)Nc2ccc(OC(F)(F)F)cc2)c2c(O)ccc(C(F)(F)F)c21 [Example 12, 1-(2-(7-Hydroxy-3,3-dimethyl-4-(trifluoromethyl)indolin-1-yl)phenyl)-3-(4-(trifluoromethoxy)phenyl)urea] | 5 nM | 0.2 µM
CC(C)(C)c1ccc(NC(=O)Nc2ccccc2N2CC(C)(C)c3c(C(F)(F)F)ccc(O)c32)cc1 [Example 13, 1-(4-tert-Butylphenyl)-3-(2-(7-hydroxy-3,3-dimethyl-4-(trifluoromethyl)indolin-1-yl)phenyl)urea] | 8.2 nM | 0.13 µM
CC1(C)CN(c2ccccc2NC(=O)Nc2ccc(F)cc2F)c2c(O)ccc(C(F)(F)F)c21 [Example 14, 1-(2,4-Difluorophenyl)-3-(2-(7-hydroxy-3,3-dimethyl-4-(trifluoromethyl)indolin-1-yl)phenyl)urea] | 5.2 nM | 0.48 µM
Cc1nc(NC(=O)Nc2ccccc2N2CC(C)(C)c3c(C(F)(F)F)ccc(O)c32)cs1 [Example 15, 1-(2-(7-Hydroxy-3,3-dimethyl-4-(trifluoromethyl)indolin-1-yl)phenyl)-3-(2-methylthiazol-4-yl)urea] | 7.3 nM | 0.95 µM
CC1(C)CN(c2ccccc2NC(=O)Nc2csc(Cl)n2)c2c(O)ccc(C(F)(F)F)c21 [Example 16, 1-(2-Chlorothiazol-4-yl)-3-(2-(7-hydroxy-3,3-dimethyl-4-(trifluoromethyl)indolin-1-yl)phenyl)urea] | 6.2 nM | 0.12 µM
CC1(C)CN(c2ccccc2NC(=O)Nc2ccc(C(F)(F)F)cc2)c2c(O)ccc(C(F)(F)F)c21 [Example 17, 1-(2-(7-Hydroxy-3,3-dimethyl-4-(trifluoromethyl)indolin-1-yl)phenyl)-3-(4-(trifluoro-methyl)phenyl)urea] | 16.4 nM | 0.27 µM

SMILES | Ki [1] | IC50 [2]
CC1(C)CN(c2ccccc2NC(=O)Nc2nc3ccc(F)cc3s2)c2c(O)ccc(C(F)(F)F)c21 [Example 18, 1-(6-Fluorobenzo[d]thiazol-2-yl)-3-(2-(7-hydroxy-3,3-dimethyl-4-(trifluoromethyl)indolin-1-yl)phenyl)urea] | 12.4 nM | 0.17 µM
CC1(C)CN(c2ccccc2NC(=O)Nc2nc3ccc(Cl)cc3s2)c2c(O)ccc(C(F)(F)F)c21 [Example 19, 1-(6-Chlorobenzo[d]thiazol-2-yl)-3-(2-(7-hydroxy-3,3-dimethyl-4-(trifluoromethyl)indolin-1-yl)phenyl)urea] | 23.6 nM | 0.12 µM
CCN1CCc2nc(NC(=O)Nc3ccccc3N3CC(C)(C)c4c(C(F)(F)F)ccc(O)c43)sc2C1 [Example 20, 1-(5-Ethyl-4,5,6,7-tetrahydrothiazolo[5,4-c]pyridin-2-yl)-3-(2-(7-hydroxy-3,3-dimethyl-4-(trifluoromethyl)indolin-1-yl)phenyl)urea] | 18.6 nM | 0.95 µM
CC(C)CN1CCc2nc(NC(=O)Nc3ccccc3N3CC(C)(C)c4c(C(F)(F)F)ccc(O)c43)sc2C1 [Example 21, 1-(2-(7-Hydroxy-3,3-dimethyl-4-(trifluoromethyl)indolin-1-yl)phenyl)-3-(5-isobutyl-4,5,6,7-tetrahydrothiazolo[5,4-c]pyridin-2-yl)urea] | 7.9 nM | 0.07 µM
CC(C)(C)CN1CCc2nc(NC(=O)Nc3ccccc3N3CC(C)(C)c4c(C(F)(F)F)ccc(O)c43)sc2C1 [Example 22, 1-(2-(7-Hydroxy-3,3-dimethyl-4-(trifluoromethyl)indolin-1-yl)phenyl)-3-(5-neopentyl-4,5,6,7-tetrahydrothiazolo[5,4-c]pyridin-2-yl)urea] | 8 nM | 0.21 µM
CC1(C)CN(c2ccccc2NC(=O)Nc2nc3c(s2)CN(CC2CC2)CC3)c2c(O)ccc(C(F)(F)F)c21 [Example 23, 1-(5-(Cyclopropylmethyl)-4,5,6,7-tetrahydrothiazolo[5,4-c]pyridin-2-yl)-3-(2-(7-hydroxy-3,3-dimethyl-4-(trifluoromethyl)indolin-1-yl)phenyl)urea] | 10.4 nM | 1.01 µM
CCC1(CC)CN(c2ccccc2NC(=O)Nc2ccc(OC(F)(F)F)cc2)c2c(O)ccc(C(F)(F)F)c21 [Example 24, 1-(2-(3,3-Diethyl-7-hydroxy-4-(trifluoromethyl)indolin-1-yl)phenyl)-3-(4-(trifluoromethoxy)phenyl)urea] | 7.6 nM | 0.22 µM
CCC1(CC)CN(c2ccccc2NC(=O)Nc2ccc(C3CCN(CC(C)(C)C)CC3)cc2)c2c(O)ccc(C(F)(F)F)c21 [Example 25, 1-(2-(3,3-Diethyl-7-hydroxy-4-(trifluoromethyl)indolin-1-yl)phenyl)-3-(4-(1-neopentylpiperidin-4-yl)phenyl)urea] | 6.3 nM | 0.26 µM
CCC1(CC)CN(c2ccccc2NC(=O)Nc2ccc(C(C)(C)C)cc2)c2c(O)ccc(F)c21 [Example 26, 1-(4-tert-Butylphenyl)-3-(2-(3,3-diethyl-4-fluoro-7-hydroxyindolin-1-yl)phenyl)urea] | 5.1 nM | 0.98 µM
CCc1ccc(NC(=O)Nc2ccccc2N2CC(CC)(CC)c3c(F)ccc(O)c32)cc1 [Example 27, 1-(2-(3,3-Diethyl-4-fluoro-7-hydroxyindolin-1-yl)phenyl)-3-(4-ethylphenyl)urea] | 3.1 nM | 1.02 µM
CCC1(CC)CN(c2ccccc2NC(=O)Nc2ccc(C3CCN(CC(C)C)CC3)cc2)c2c(O)ccc(F)c21 [Example 28, 1-(2-(3,3-Diethyl-4-fluoro-7-hydroxyindolin-1-yl)phenyl)-3-(4-(1-isobutylpiperidin-4-yl)phenyl)urea] | 8.1 nM | 0.54 µM
CCC1(CC)CN(c2ccccc2NC(=O)Nc2ccc(C3CCCN3CC(C)(C)C)cc2)c2c(O)ccc(F)c21 (centres unmarked) [Example 29, 1-(2-(3,3-Diethyl-4-fluoro-7-hydroxyindolin-1-yl)phenyl)-3-(4-(1-neopentylpyrrolidin-2-yl)phenyl)urea] | 3.6 nM | 0.3 µM
CCC1(CC)CN(c2ccccc2NC(=O)Nc2ccc(C3CCCN3CC(C)C)cc2)c2c(O)ccc(F)c21 (centres unmarked) [Example 30, 1-(2-(3,3-Diethyl-4-fluoro-7-hydroxyindolin-1-yl)phenyl)-3-(4-(1-isobutylpyrrolidin-2-yl)phenyl)urea] | 5.1 nM | 0.28 µM
CCC1(CC)CN(c2ccccc2NC(=O)Nc2csc(Cl)n2)c2c(O)ccc(F)c21 [Example 31, 1-(2-Chlorothiazol-4-yl)-3-(2-(3,3-diethyl-4-fluoro-7-hydroxyindolin-1-yl)phenyl)urea] | 3.3 nM | 0.53 µM
CCSc1nsc(NC(=O)Nc2ccccc2N2CC(CC)(CC)c3c(F)ccc(O)c32)n1 [Example 33, 1-(2-(3,3-Diethyl-4-fluoro-7-hydroxyindolin-1-yl)phenyl)-3-(3-(ethylthio)-1,2,4-thiadiazol-5-yl)urea] | 7.6 nM | 0.55 µM
